For data set [1] the following is noted: Table 5; cited from earlier work.
The nature of data set [2]: Characteristics of fragrance components in words (vapor pressure, water solubility, oxidation). The data set is classed as physicochemical.
Description: This test evaluated properties of fragrances with different levels of water solubility with regard to their effect on contributing to streaking/blooming.

Take `CC(C=O)Cc1ccc(C(C)(C)C)cc1` (stereo not drawn) [Lilial]: the “Vapor Pressure mm/Hg” value in data set [1] is recorded as 0.004 mm/Hg. Also, in data set [2] (Table 5, in words), the “Characteristics: oxidation” value is given as “(2) Easily oxidized”, the “Characteristics: vapor pressure” value is given as “(1) Low vapor” and the “Characteristics: water solubility” value is recorded as “(3) Low water”. The “Water Solubility” value in data set [2] (Table 6, in words) was “Low”.

For the compound `CCOC(=O)CC1(C)OCCO1` [Applinal = Fructone, Applinal], the “Characteristics: water solubility” value in data set [2] (Table 5, in words) is listed as “High water”. Also, the “Water Solubility” value in data set [2] (Table 6, in words) is listed as “High”; in data set [2] (text b58, in words), “high”.

For the compound `C=CC(C)CCCC(C)(C)O` (stereo not drawn) [Dihydromyrcenol], in data set [1], the “Vapor Pressure mm/Hg” value is recorded as 0.7 mm/Hg. For the same compound, in data set [2] (Table 5, in words), the “Characteristics: vapor pressure” value is listed as “(1) Fairly high” and the “Characteristics: water solubility” value was “(2) Reasonable”. Besides, in data set [2] (Table 6, in words), the “Water Solubility” value is recorded as “Medium”.

These data come from US20080305978A1, “Cleaning compositions containing a hydrophilic fragrance” (S.C. Johnson & Son, Inc., priority 2007, published 2008).
